Peptide text beside a SMILES is read from it. * marks the point of attachment. Palmitoyl = CCCCCCCCCCCCCCCC(=O)*
Test: Solubility in the cell culture conditions (medium without foetal calf serum and few solvent)
Assay type: physicochemical
Settings: cell culture medium without foetal calf serum and few solvent (DMSO 0.08%)
Method: After 3 days of incubation, supernatants were collected and frozen. Survival was estimated on cell layer using a fluorescent probe. Collagen I was estimated using an original direct ELISA method. Results: TGF-b1 should be promoter of Collagen I synthesis. Statistical analysis were performed on Collagen I data (n=3 to n=5 / assay). Results obtained with molecules were compared to negative control. A Student t test for non paired values was used; significativity was obtained if p < 0.05 or p < 0.01. In our cell culture conditions (medium without foetal calf serum and few solvent), Pal-Gly-Lys-Thr-Thr-Lys-Ser was insoluble for concentrations > 5.4 ppm. Table 1: Effect of Pal-Gly-Lys-Thr-Thr-Lys-Ser (SEQ ID NO: 14) on NHDF's Collagen I. Results (from 4 independent experimentations) are in percent compared to the negative control.

SMILES: CCCCCCCCCCCCCCCC(=O)NCC(=O)N[C@@H](CCCCN)C(=O)N[C@H](C(=O)N[C@H](C(=O)N[C@@H](CCCCN)C(=O)N[C@@H](CO)C(=O)O)[C@@H](C)O)[C@@H](C)O [N-Palmitoyl-Gly-Lys-Thr-Thr-Lys-Ser] (Palmitoyl-GKTTKS-OH)
- insoluble for concentrations: > 5.4 ppm

Source: patent EP1960421B1, “NEW POLYPEPTIDES AND THEIR USE” (SEDERMA, priority 2005, dated 2007)
